Peptide text beside a SMILES is read from it. * marks the point of attachment. Myristoyl = CCCCCCCCCCCCCC(=O)*
Legend:
[1] = Blood tests on maternal bodies after intraperitoneal administration; assay type: in vivo; settings: female mice, 8 µM with respect to total weight, in corn oil, blood 24 hours after administration
Procedure: An excess amount of Iznm-2 was administered intraperitoneally to female mice to examine the side effects of the peptide medicament. In Example 8, […] Iznm-2 was administered together with 5 µl or less of the embryos to the uterus of each mouse. In the present experiment, Iznm-2 was administered in such a manner that the concentration thereof would be 8 µM with respect to the total weight of each mouse. Iznm-2 was dissolved in corn oil. As a control, corn oil without the peptide medicament was administered. Blood samples were collected 24 hours after the administration, and blood components serving as indicators of the condition of the liver and kidney were analyzed.

B6D2F 1 mouse embryos = assay: Embryo development after transfer with peptide-supplemented medium (Example 7); assay type: in vivo; settings: blastocysts in KSOM medium with 32 µM Iznm-2, transferred to pseudopregnant ICR mice, examined at E14
Procedure: In order to examine the effect of the peptide medicament on embryo development, the following experiment was performed. ICR male mice at 8 weeks of age were vasectomized. ICR female mice in proestrus were mated with the vasectomized male mice, and the female mice having developed a copulation plug on the following day were used as pseudopregnant female mice. Two days after confirming the presence of the copulation plug, B6D2F 1 mouse embryos that had developed into blastocysts were transferred to the female mice. The blastocysts were added to KSOM medium supplemented with 32 µM Iznm-2 immediately before the transfer, and the embryos were transferred together with the medium. The amount of the medium injected into the uterus at the time of transfer was 5 µl or less. The embryo transfer was performed in the following manner. The pseudopregnant female mice were anesthetized, and the skin on one side in the dorsum and the abdominal wall of each mouse were incised to expose the uterus to the outside of the body. The uterus was pierced through with a 26-G needle, and the embryos were injected into the thus-formed hole together with the medium using a glass tube. After the transfer, the uterus was returned to the body, and the incision was sutured. The transferred embryos were allowed to develop in the recipient mice until E14. […]

CRE ([1]; Kidney): 0.12 mg/dL | LAP ([1]; Liver & Kidney): 26 IU/L | TP ([1]; Liver & Kidney): 5.1 g/dL | A/G ([1]; Liver): 1.85 | ALB ([1]; Liver): 3.3 g/dL | ALP ([1]; Liver): 463 IU/L | ChE ([1]; Liver): 32.5 IU/L | D-BIL ([1]; Liver): 0.02 mg/dL | I-BIL ([1]; Liver): 0.02 mg/dL | T-BIL ([1]; Liver): 0.08 mg/dL | γ-GT ([1]; Liver): 3 IU/L | development of transferred embryos (B6D2F 1 mouse embryos): developed normally
SMILES: CCCCCCCCCCCCCC(=O)N[C@@H](CCCCN)C(=O)N[C@@H](Cc1ccccc1)C(=O)N[C@@H](CCC(=O)O)C(=O)N[C@@H](CCC(=O)O)C(=O)N[C@@H](CCC(=O)O)C(=O)N[C@@H](CCCNC(=N)N)C(=O)N[C@@H](CO)C(=O)N[C@@H](CCCNC(=N)N)C(=O)N[C@@H](CS)C(=O)N[C@@H](CCCCN)C(=O)N[C@@H](Cc1c[nH]c2ccccc12)C(=O)N[C@@H](CCSC)C(=O)N[C@H](C(=O)O)[C@@H](C)O [Iznm-2, Myr-KFEEERSRCKWMT] (Myristoyl-KFEEERSRCKWMT-OH)
ALT ([1]; Liver): 38 IU/L
